Measurements taken from patent publication US10266526B2, “Substituted 1,2,3-triazoles as SMYD inhibitors for treating cancer” (EPIZYME, INC., priority 2014, dated 2019).

Biological target: SMYD3 (Homo sapiens (Human), UniProt Q9H7B4)
Assay: SMYD3 biochemical assay (SMYD3 enzyme assay on MEKK2 protein substrate, 3H-SAM scintillation proximity assay)
Conditions: read-out: SMYD3 Biochem IC50
Summary of the method: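 Native full-length human SMYD3, expressed in E. coli, was preincubated with compound for 30 min at room temperature in 25 mM Tris-Cl pH 8.0, 1 mM TCEP, 0.005% BSG and 0.005% Tween 20. ³H-SAM plus GST-MEKK2 then started the reaction. It was stopped with unlabeled SAM (100 uM final), and methylated MEKK2 was read by SPA.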

SMYD3, sequence (Q9H7B4 whole entry): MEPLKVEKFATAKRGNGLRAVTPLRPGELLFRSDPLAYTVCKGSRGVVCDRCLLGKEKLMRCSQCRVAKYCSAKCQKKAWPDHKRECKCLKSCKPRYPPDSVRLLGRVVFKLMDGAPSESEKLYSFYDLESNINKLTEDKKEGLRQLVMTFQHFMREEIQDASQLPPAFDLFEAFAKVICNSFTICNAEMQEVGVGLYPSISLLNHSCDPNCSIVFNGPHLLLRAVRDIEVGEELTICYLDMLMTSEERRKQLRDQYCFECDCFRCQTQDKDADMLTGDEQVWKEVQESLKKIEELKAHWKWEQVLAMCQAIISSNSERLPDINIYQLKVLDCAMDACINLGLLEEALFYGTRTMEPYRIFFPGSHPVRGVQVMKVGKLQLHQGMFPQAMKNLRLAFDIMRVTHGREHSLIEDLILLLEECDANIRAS

Row | IC50 [µM] | SMILES
1 | > 100 | CC(NC(=O)c1ccc(S(N)(=O)=O)cc1)C1CCN(C(=O)[C@H](C)N)CC1 (stereo partly drawn) [compound 323, N-(1-(1-(L-alanyl)piperidin-4-yl)ethyl)-4-sulfamoylbenzamide]
2 | > 100 | Cc1cc(C)c(C(=O)N[C@H]2CC[C@H](N)CC2)c(=O)[nH]1 [compound 324, N-((1r,4r)-4-aminocyclohexyl)-4,6-dimethyl-2-oxo-1,2-dihydropyridine-3-carboxamide]
3 | > 100 | Cn1ncc2ccc(C(=O)N[C@H]3CC[C@H](NC(=O)CCN)CC3)cc21 [compound 325, N-((1r,4r)-4-(3-aminopropanamido)cyclohexyl)-1-methyl-1H-indazole-6-carboxamide]
4 | 28 | COc1ccc2cc(C(=O)N[C@H]3CC[C@H](NC(=O)CCN)CC3)ccc2c1 [compound 326, N-((1r,4r)-4-(3-aminopropanamido)cyclohexyl)-6-methoxy-2-naphthamide]
5 | > 100 | NCCC(=O)N[C@H]1CC[C@H](NC(=O)c2cc(=O)c3ccccc3o2)CC1 [compound 327, N-((1r,4r)-4-(3-aminopropanamido)cyclohexyl)-4-oxo-4H-chromene-2-carboxamide]
6 | > 100 | N[C@H]1CC[C@H](NC(=O)c2cc(O)c3ccccc3n2)CC1 [compound 328, N-((1r,4r)-4-aminocyclohexyl)-4-hydroxyquinoline-2-carboxamide]
7 | > 100 | NCCC(=O)N[C@H]1CC[C@H](NC(=O)c2ccc(-n3cnnc3)cc2)CC1 [compound 329, N-((1r,4r)-4-(3-aminopropanamido)cyclohexyl)-4-(4H-1,2,4-triazol-4-yl)benzamide]
8 | 7.49 | NCCC(=O)N[C@H]1CC[C@H](NC(=O)c2ccc3c(c2)OC(F)(F)O3)CC1 [compound 330, N-((1r,4r)-4-(3-aminopropanamido)cyclohexyl)-2,2-difluorobenzo[d][1,3]dioxole-5-carboxamide]
9 | 85.1 | NCCC(=O)N[C@H]1CC[C@H](NC(=O)c2ccc3c(c2)no[n+]3[O-])CC1 [compound 331, 5-(((1r,4r)-4-(3-aminopropanamido)cyclohexyl)carbamoyl)benzo[c][1,2,5]oxadiazole 1-oxide]
10 | > 100 | NCCC(=O)N[C@H]1CC[C@H](NC(=O)c2ccc3nonc3c2)CC1 [compound 332, N-((1r,4r)-4-(3-aminopropanamido)cyclohexyl)benzo[c][1,2,5]oxadiazole-5-carboxamide]
11 | > 100 | N[C@H]1CC[C@H](NC(=O)CCCn2ccnc2)CC1 [compound 333, N-((1r,4r)-4-aminocyclohexyl)-4-(1H-imidazol-1-yl)butanamide]
12 | 34.9 | COc1ccc2cc(C(C)C(=O)NC(C)C3CCN(C(=O)[C@H](C)N)CC3)ccc2c1 (stereo partly drawn) [compound 334, N-(1-(1-(L-alanyl)piperidin-4-yl)ethyl)-2-(6-methoxynaphthalen-2-yl)propanamide]
13 | > 100 | NCCC(=O)N[C@H]1CC[C@H](NC(=O)c2cc3cc(F)ccc3[nH]2)CC1 [compound 335, N-((1r,4r)-4-(3-aminopropanamido)cyclohexyl)-5-fluoro-1H-indole-2-carboxamide]
14 | > 100 | N[C@H]1CC[C@H](NC(=O)c2nc3ccccc3[nH]2)CC1 [compound 336, N-((1r,4r)-4-aminocyclohexyl)-1H-benzo[d]imidazole-2-carboxamide]
15 | > 100 | Cn1ccnc1C(=O)N[C@H]1CC[C@H](N)CC1 [compound 337, N-((1r,4r)-4-aminocyclohexyl)-1-methyl-1H-imidazole-2-carboxamide]
16 | > 100 | CC(NC(=O)C1C[C@@H]2C=C[C@H]1C2)C1CCN(C(=O)[C@H](C)N)CC1 (stereo partly drawn) [compound 338, (1r,4r)-N-(1-(1-(L-alanyl)piperidin-4-yl)ethyl)bicyclo[2.2.1]hept-5-ene-2-carboxamide]

Row | IC50 [µM] | SMILES
17 | > 100 | Cc1ccncc1C(=O)N[C@H]1CC[C@H](N)CC1 [compound 339, N-((1r,4r)-4-aminocyclohexyl)-4-methylnicotinamide]
18 | > 100 | Cc1cccc(Cn2nc(C(C)(C)C)cc2C(=O)N[C@H]2CC[C@H](NC(=O)CCN)CC2)c1 [compound 340, N-((1r,4r)-4-(3-aminopropanamido)cyclohexyl)-3-(tert-butyl)-1-(3-methylbenzyl)-1H-pyrazole-5-carboxamide]
19 | > 100 | Cc1cccc(Cn2nc(C(C)(C)C)cc2C(=O)N[C@H]2CC[C@H](N)CC2)c1 [compound 341, N-((1r,4r)-4-aminocyclohexyl)-3-(tert-butyl)-1-(3-methylbenzyl)-1H-pyrazole-5-carboxamide]
20 | 37.7 | Cc1cccc2cc(C(=O)N[C@H]3CC[C@H](NC(=O)CCN)CC3)[nH]c12 [compound 342, N-((1r,4r)-4-(3-aminopropanamido)cyclohexyl)-7-methyl-1H-indole-2-carboxamide]
21 | 68.5 | Cc1cccc2cc(C(=O)N[C@H]3CC[C@H](N)CC3)[nH]c12 [compound 343, N-((1r,4r)-4-aminocyclohexyl)-7-methyl-1H-indole-2-carboxamide]
22 | 36.4 | Cc1cncc(C(=O)N[C@H]2CC[C@H](NC(=O)CCN)CC2)c1 [compound 344, N-((1r,4r)-4-(3-aminopropanamido)cyclohexyl)-5-methylnicotinamide]
23 | 50.7 | Cc1cncc(C(=O)N[C@H]2CC[C@H](N)CC2)c1 [compound 345, N-((1r,4r)-4-aminocyclohexyl)-5-methylnicotinamide]
24 | > 100 | Cc1ccc(C(=O)N[C@H]2CC[C@H](N)CC2)cn1 [compound 346, N-((1r,4r)-4-aminocyclohexyl)-6-methylnicotinamide]
25 | > 100 | Cc1nscc1C(=O)N[C@H]1CC[C@H](NC(=O)CCN)CC1 [compound 347, N-((1r,4r)-4-(3-aminopropanamido)cyclohexyl)-3-methylisothiazole-4-carboxamide]
26 | > 100 | Cc1nscc1C(=O)N[C@H]1CC[C@H](N)CC1 [compound 348, N-((1r,4r)-4-aminocyclohexyl)-3-methylisothiazole-4-carboxamide]
27 | > 100 | Cn1ccc(C(=O)N[C@H]2CC[C@H](NC(=O)CCN)CC2)n1 [compound 349, N-((1r,4r)-4-(3-aminopropanamido)cyclohexyl)-1-methyl-1H-pyrazole-3-carboxamide]
28 | > 100 | Cn1ccc(C(=O)N[C@H]2CC[C@H](N)CC2)n1 [compound 350, N-((1r,4r)-4-aminocyclohexyl)-1-methyl-1H-pyrazole-3-carboxamide]
29 | > 100 | Cn1nc(C(C)(C)C)cc1C(=O)N[C@H]1CC[C@H](NC(=O)CCN)CC1 [compound 351, N-((1r,4r)-4-(3-aminopropanamido)cyclohexyl)-3-(tert-butyl)-1-methyl-1H-pyrazole-5-carboxamide]
30 | > 100 | Cn1nc(C(C)(C)C)cc1C(=O)N[C@H]1CC[C@H](N)CC1 [compound 352, N-((1r,4r)-4-aminocyclohexyl)-3-(tert-butyl)-1-methyl-1H-pyrazole-5-carboxamide]
31 | > 100 | COc1cccc(C(=O)N[C@H]2CC[C@H](NC(=O)CCN)CC2)n1 [compound 353, N-((1r,4r)-4-(3-aminopropanamido)cyclohexyl)-6-methoxypicolinamide]
32 | > 100 | COc1cccc(C(=O)N[C@H]2CC[C@H](N)CC2)n1 [compound 354, N-((1r,4r)-4-aminocyclohexyl)-6-methoxypicolinamide]
